From ChEMBL document CHEMBL3351810, “[(11)C-carbonyl]CEP-32496: radiosynthesis, biodistribution and PET study of brain uptake in P-gp/BCRP knockout mice” (Bioorg Med Chem Lett, 2014)

Key:
Type in all cases: ADME, organism-based
Kidney [1] = assay: Biodistribution in mouse kidney at 8.4 MBq/0.1 ml, iv after 30 mins by PET imaging analysis; conditions: in vivo, 0.5 h
Liver [2] = assay: Biodistribution in mouse liver at 8.4 MBq/0.1 ml, iv after 1 min by PET imaging analysis; conditions: in vivo
Spleen [3] = assay: Biodistribution in mouse spleen at 8.4 MBq/0.1 ml, iv after 1 min by PET imaging analysis; conditions: in vivo
Blood [4] = assay: Biodistribution in mouse blood at 8.4 MBq/0.1 ml, iv after 5 mins by PET imaging analysis; conditions: in vivo
Blood [5] = assay: Biodistribution in mouse blood at 8.4 MBq/0.1 ml, iv after 60 mins by PET imaging analysis; conditions: in vivo, 1 h
Lung [6] = assay: Biodistribution in mouse lung at 8.4 MBq/0.1 ml, iv after 1 min by PET imaging analysis; conditions: in vivo
Kidney [7] = assay: Biodistribution in mouse kidney at 8.4 MBq/0.1 ml, iv after 60 mins by PET imaging analysis; conditions: in vivo, 1 h
Lung [8] = assay: Biodistribution in mouse lung at 8.4 MBq/0.1 ml, iv after 60 mins by PET imaging analysis; conditions: in vivo, 1 h
Spleen [9] = assay: Biodistribution in mouse spleen at 8.4 MBq/0.1 ml, iv after 15 mins by PET imaging analysis; conditions: in vivo, 0.25 h
Mus musculus [10] = assay: Biodistribution in mouse large intestine at 8.4 MBq/0.1 ml, iv after 60 mins by PET imaging analysis; conditions: in vivo, 1 h
Lung [11] = assay: Biodistribution in mouse lung at 8.4 MBq/0.1 ml, iv after 30 mins by PET imaging analysis; conditions: in vivo, 0.5 h
Blood [12] = assay: Biodistribution in mouse blood at 8.4 MBq/0.1 ml, iv after 15 mins by PET imaging analysis; conditions: in vivo, 0.25 h
Mus musculus [13] = assay: Biodistribution in mouse large intestine at 8.4 MBq/0.1 ml, iv after 15 mins by PET imaging analysis; conditions: in vivo, 0.25 h
Liver [14] = assay: Biodistribution in mouse liver at 8.4 MBq/0.1 ml, iv after 60 mins by PET imaging analysis; conditions: in vivo, 1 h
Pancreas [15] = assay: Biodistribution in mouse pancreas at 8.4 MBq/0.1 ml, iv after 5 mins by PET imaging analysis; conditions: in vivo
Muscle tissue [16] = assay: Biodistribution in mouse muscle at 8.4 MBq/0.1 ml, iv after 1 min by PET imaging analysis; conditions: in vivo
Heart [17] = assay: Biodistribution in mouse heart at 8.4 MBq/0.1 ml, iv after 1 min by PET imaging analysis; conditions: in vivo
Heart [18] = assay: Biodistribution in mouse heart at 8.4 MBq/0.1 ml, iv after 60 mins by PET imaging analysis; conditions: in vivo, 1 h
Lung [19] = assay: Biodistribution in mouse lung at 8.4 MBq/0.1 ml, iv after 5 mins by PET imaging analysis; conditions: in vivo
Kidney [20] = assay: Biodistribution in mouse kidney at 8.4 MBq/0.1 ml, iv after 15 mins by PET imaging analysis; conditions: in vivo, 0.25 h
Pancreas [21] = assay: Biodistribution in mouse pancreas at 8.4 MBq/0.1 ml, iv after 1 min by PET imaging analysis; conditions: in vivo
Muscle tissue [22] = assay: Biodistribution in mouse muscle at 8.4 MBq/0.1 ml, iv after 30 mins by PET imaging analysis; conditions: in vivo, 0.5 h
Brain [23] = assay: Biodistribution in P-gp/BCRP knockout mouse brain by PET imaging analysis; conditions: in vivo
Brain [24] = assay: Biodistribution in mouse brain at 8.4 MBq/0.1 ml, iv after 5 mins by PET imaging analysis; conditions: in vivo
Heart [25] = assay: Biodistribution in mouse heart at 8.4 MBq/0.1 ml, iv after 5 mins by PET imaging analysis; conditions: in vivo
Spleen [26] = assay: Biodistribution in mouse spleen at 8.4 MBq/0.1 ml, iv after 5 mins by PET imaging analysis; conditions: in vivo
Brain [27] = assay: Biodistribution in mouse brain at 8.4 MBq/0.1 ml, iv after 60 mins by PET imaging analysis; conditions: in vivo, 1 h
Kidney [28] = assay: Biodistribution in mouse kidney at 8.4 MBq/0.1 ml, iv after 5 mins by PET imaging analysis; conditions: in vivo
Liver [29] = assay: Biodistribution in mouse liver at 8.4 MBq/0.1 ml, iv after 15 mins by PET imaging analysis; conditions: in vivo, 0.25 h

A Drug uptake (Kidney [1]) of 7.44 % ID/g, a Drug uptake (Liver [2]) of 17.18 % ID/g and a Drug uptake (Spleen [3]) of 3.92 % ID/g were found for COc1cc2ncnc(Oc3cccc(N[11C](=O)Nc4cc(C(C)(C)C(F)(F)F)on4)c3)c2cc1OC.Cl in this work. For the same molecule, the Drug uptake (Blood [4]) was 0.99 % ID/g, the Drug uptake (Blood [5]) was 0.61 % ID/g and the Drug uptake (Lung [6]) was 14.3 % ID/g. For the same molecule, the Drug uptake (Kidney [7]) was 4.91 % ID/g, the Drug uptake (Lung [8]) was 2.24 % ID/g and the Drug uptake (Spleen [9]) was 2.05 % ID/g. For the same molecule, the Drug uptake (Mus musculus [10]) was 1.98 % ID/g, the Drug uptake (Lung [11]) was 3.34 % ID/g and the Drug uptake (Blood [12]) was 0.95 % ID/g. The Drug uptake (Mus musculus [13]) was 1.01 % ID/g, the Drug uptake (Liver [14]) was 12.69 % ID/g and the Drug uptake (Pancreas [15]) was 2.77 % ID/g. It also gave a Drug uptake (Muscle tissue [16]) of 2.37 % ID/g, a Drug uptake (Heart [17]) of 11.25 % ID/g and a Drug uptake (Heart [18]) of 1.98 % ID/g. For the same molecule, the Drug uptake (Lung [19]) was 4.75 % ID/g, the Drug uptake (Kidney [20]) was 7.68 % ID/g and the Drug uptake (Pancreas [21]) was 2.96 % ID/g. For the same molecule, the Drug uptake (Muscle tissue [22]) was 1.54 % ID/g, the Drug uptake (Brain [23]) was “Active” and the Drug uptake (Brain [24]) was 0.1 % ID/g. It also gave a Drug uptake (Heart [25]) of 4.43 % ID/g, a Drug uptake (Spleen [26]) of 2.05 % ID/g and a Drug uptake (Brain [27]) of 0.08 % ID/g. The Drug uptake (Kidney [28]) was 8.36 % ID/g and the Drug uptake (Liver [29]) was 17.4 % ID/g.
